Usually IC50 stands for the concentration that gives 50% inhibition. Read a low IC50 as inhibition by little substance.

The assay concerns the target T1, DmX receptor (DmXR) (Drosophila melanogaster, UniProt Q70GQ8).
T1 construct: gene mtt; HA-DmXR WT, transiently expressed in HEK 293 cells
T1 sequence (Q70GQ8 1-1073): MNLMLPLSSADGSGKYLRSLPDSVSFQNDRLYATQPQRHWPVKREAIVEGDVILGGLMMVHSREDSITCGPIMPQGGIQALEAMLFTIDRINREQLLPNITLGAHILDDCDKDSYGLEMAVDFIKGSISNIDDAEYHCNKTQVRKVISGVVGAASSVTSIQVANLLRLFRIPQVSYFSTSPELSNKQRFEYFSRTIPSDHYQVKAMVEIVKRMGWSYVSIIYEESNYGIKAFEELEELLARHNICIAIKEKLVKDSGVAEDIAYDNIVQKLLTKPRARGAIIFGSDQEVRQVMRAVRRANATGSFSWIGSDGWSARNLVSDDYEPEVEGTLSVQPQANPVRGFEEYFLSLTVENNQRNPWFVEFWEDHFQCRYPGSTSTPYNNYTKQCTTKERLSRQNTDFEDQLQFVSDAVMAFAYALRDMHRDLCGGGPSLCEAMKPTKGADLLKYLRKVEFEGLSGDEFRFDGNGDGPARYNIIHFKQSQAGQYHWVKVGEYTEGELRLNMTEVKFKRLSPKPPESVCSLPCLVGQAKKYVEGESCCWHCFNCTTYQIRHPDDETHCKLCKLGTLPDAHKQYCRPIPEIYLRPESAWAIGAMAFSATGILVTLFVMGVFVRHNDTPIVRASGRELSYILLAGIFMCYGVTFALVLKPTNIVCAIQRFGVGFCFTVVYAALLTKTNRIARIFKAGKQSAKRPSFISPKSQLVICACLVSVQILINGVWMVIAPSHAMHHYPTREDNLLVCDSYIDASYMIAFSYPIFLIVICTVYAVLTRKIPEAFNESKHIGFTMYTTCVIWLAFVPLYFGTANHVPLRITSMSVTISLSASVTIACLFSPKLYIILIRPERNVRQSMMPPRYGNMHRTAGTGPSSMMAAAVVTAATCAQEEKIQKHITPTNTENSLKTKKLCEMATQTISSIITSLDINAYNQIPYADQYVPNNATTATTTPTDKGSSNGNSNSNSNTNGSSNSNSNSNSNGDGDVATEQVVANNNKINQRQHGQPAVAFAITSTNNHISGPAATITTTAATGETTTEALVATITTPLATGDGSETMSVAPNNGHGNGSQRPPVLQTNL
Description: IP accumulation in HEK cells coexpressing DmXR and Gqi9; inhibition of activation by […] L-canavanine (antagonist). The assay is classed as cell-based.

In turn, `CN=C(N)NCCC[C@H](N)C(=O)O` [NMA, N-methyl-L-arginine] came in with a concentration for half-maximal inhibition (IC50) of 200 ± 200 µM.

Source of the values: PMC2695807, “Plant Insecticide L-Canavanine Repels Drosophila via the Insect Orphan GPCR DmX” (PLoS Biology, 2009).
